Assay results taken from ChEMBL document CHEMBL1153765, “Bioactive 5,6-dihydro-alpha-pyrone derivatives from Hyptis brevipes” (2009).
The source made the active and inactive calls. The rule behind the calls is not given here.

Tests used:
MCF7 = test: Cytotoxicity against human MCF7 cells; type: functional; conditions: read-out: ED50 (the source's name)
Lu1 = test: Cytotoxicity against human Lu1 cells; type: functional, cell-based
[1] = target: T1, Nuclear factor NF-kappa-B p105 subunit (Homo sapiens) (UniProt P19838); test: Inhibition of NF kappaB p50 subunit signaling pathway in human HeLa cells by biotinylated-ELISA; type: cell-based
T1 sequence (whole entry): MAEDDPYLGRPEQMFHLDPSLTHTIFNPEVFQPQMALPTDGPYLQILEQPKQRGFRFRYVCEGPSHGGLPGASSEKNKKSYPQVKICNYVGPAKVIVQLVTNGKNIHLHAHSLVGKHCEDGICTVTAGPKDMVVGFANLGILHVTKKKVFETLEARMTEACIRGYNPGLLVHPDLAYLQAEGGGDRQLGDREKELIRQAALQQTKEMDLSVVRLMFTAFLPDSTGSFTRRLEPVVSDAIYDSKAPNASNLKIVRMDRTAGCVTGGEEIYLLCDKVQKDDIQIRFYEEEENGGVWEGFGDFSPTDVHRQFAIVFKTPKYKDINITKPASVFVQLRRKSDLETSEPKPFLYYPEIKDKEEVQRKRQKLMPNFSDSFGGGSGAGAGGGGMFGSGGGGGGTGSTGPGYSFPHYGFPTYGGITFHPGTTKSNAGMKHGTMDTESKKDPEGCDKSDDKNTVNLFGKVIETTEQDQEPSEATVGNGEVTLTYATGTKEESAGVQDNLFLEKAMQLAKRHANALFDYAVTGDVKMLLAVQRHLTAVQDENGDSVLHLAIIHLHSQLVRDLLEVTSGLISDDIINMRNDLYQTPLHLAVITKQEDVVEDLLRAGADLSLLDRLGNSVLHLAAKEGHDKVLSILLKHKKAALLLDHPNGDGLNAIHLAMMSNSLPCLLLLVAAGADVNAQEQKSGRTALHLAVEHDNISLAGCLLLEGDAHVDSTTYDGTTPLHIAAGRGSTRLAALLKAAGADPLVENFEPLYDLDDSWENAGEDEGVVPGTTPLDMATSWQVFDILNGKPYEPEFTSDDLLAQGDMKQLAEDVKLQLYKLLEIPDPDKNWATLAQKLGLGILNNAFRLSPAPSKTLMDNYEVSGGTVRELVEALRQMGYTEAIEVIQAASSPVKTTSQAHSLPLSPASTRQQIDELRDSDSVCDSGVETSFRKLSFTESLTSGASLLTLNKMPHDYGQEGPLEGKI

HL-60 = test: Inhibition of chymotrypsin-like activity of proteasome in human HL60 cells assessed as free AMC level after 10 mins; type: subcellular
HT-29 [2] = test: Cytotoxicity against human HT-29 cells; type: functional; conditions: read-out: ED50 (the source's name)
HT-29 [3] = test: Induction of apoptosis in human HT-29 cells assessed as change in mitochondrial transmembrane potential after 2 hrs by JC1 staining based fluorescence assay; type: functional; conditions: HT-29, 2 h, read-out: ED50 (the source's name)

SMILES	EC50 (MCF7)	Activity (Lu1)	ED50 [1]	ED50 (HL-60)	EC50 (HT-29 [2])	EC50 (HT-29 [3])
CC(=O)O[C@@H]([C@H]1C[C@@H]1C(=O)C(C)OC(=O)/C=C/c1ccc(O)c(O)c1)[C@H]1CC=CC(=O)O1 (stereo not given in full) [BREVIPOLIDE E]	> 10 µM	inactive	> 50 µM	–	–	–
CC(OC(=O)/C=C\c1ccc(O)c(O)c1)C(=O)[C@H]1C[C@@H]1[C@H](O)[C@H]1CC=CC(=O)O1 (stereo not given in full) [BREVIPOLIDE D]	> 10 µM	inactive	> 50 µM	44.5 µM	–	–
CC(=O)O[C@@H]([C@H]1C[C@@H]1C(=O)C(C)OC(=O)/C=C/c1ccc(O)cc1)[C@H]1CC=CC(=O)O1 (stereo not given in full) [BREVIPOLIDE A]	> 10 µM	inactive	> 50 µM	–	5.8 µM	–
CC(OC(=O)/C=C/c1ccc(O)cc1)C(=O)[C@H]1C[C@@H]1[C@H](O)[C@H]1CC=CC(=O)O1 (stereo not given in full)	3.6 µM	inactive	15.3 µM	–	–	0.075 µM
CC(OC(=O)/C=C\c1ccc(O)cc1)C(=O)[C@H]1C[C@@H]1[C@H](O)[C@H]1CC=CC(=O)O1 (stereo not given in full) [BREVIPOLIDE F]	6.7 µM	inactive	> 50 µM	–	–	–
CC(=O)O[C@@H]([C@H]1C[C@@H]1C(=O)C(C)OC(=O)/C=C\c1ccc(O)cc1)[C@H]1CC=CC(=O)O1 (stereo not given in full) [BREVIPOLIDE B]	6.1 µM	inactive	> 50 µM	–	6.1 µM	–
COc1ccc([C@@]23Oc4cc(OC)cc(OC)c4[C@]2(O)[C@H](O)[C@H](C(=O)N(C)C)[C@H]3c2ccccc2)cc1	–	–	2 µM	–	–	–
COc1ccc(-c2oc3cc(OC)c(O)c(O)c3c(=O)c2OC)cc1O	–	inactive	> 50 µM	17 µM	–	–
CC(OC(=O)/C=C/c1ccc(O)c(O)c1)C(=O)[C@H]1C[C@@H]1[C@H](O)[C@H]1CC=CC(=O)O1 (stereo not given in full) [BREVIPOLIDE C]	> 10 µM	inactive	> 50 µM	38 µM	–	–
